Tested on: relapsed or refractory, rituximab-naive or -sensitive follicular B-cell NHL
Experiment: Time to progression (TTP), Vc-R vs rituximab study, by biomarker
Type: in vivo, human
Design: TTP Median: unit not given here
Source text: Non-Hodgkin lymphoma (NHL) encompasses several unique malignant lymphoid disease entities that vary in clinical behavior, morphologic appearance, immunologic, and molecular phenotype. […] A randomized, open-label, active-controlled, multicenter, multinational, prospective study to compare the efficacy and safety of the combination of bortezomib and rituximab (Vc-R) to single-agent rituximab in subjects who have relapsed or refractory, rituximab-naive or -sensitive follicular B-cell NHL was performed.
Subjects were centrally randomized to Treatment Groups A (Vc-R) or B (rituximab) in a 1:1 ratio taking into account the following stratification factors: • Follicular Lymphoma International Prognostic Index (FLIPI) score (low [0 or 1 factor], intermediate [2 factors], high [≧3 factors]); • Prior rituximab therapy (yes, no); • Time since last dose of anti-lymphoma therapy (≦1 year, >1 year); • Region (United States/Canada, European Union, Rest of World).
For single-marker association analyses and pair-wise comparisons, a log rank test and Cox proportional hazard model was utilized for assessments of PFS, TTP, and OS between the treatment groups. Kaplan-Meier curves were utilized to estimate the distribution differences between groups in the time-to-event analyses. Comparison of the response rates between the treatment groups was conducted using the Fishers exact test. Single-marker association analyses were stratified by the covariates.
For pair-wise comparison analysis, biomarker pairs were formed by combinations of two markers. A log rank test was utilized for assessments of PFS, TTP, and OS between the treatment groups in the subpopulation defined by biomarker pairs. Kaplan-Meier curves were utilized to estimate the distribution differences between groups in the time-to-event analyses. Comparison of the response rates between the treatment groups was conducted using the Fishers exact test. Methods of Analysis for the multiple biomarker comparison models can be found in section 4.6.

[1] = PSMB1/I208N: T/T, Ann Arbor Stage IV, IRC review
[2] = PSMB1/I208N: T/T, High Tumor Burden, IRC review
[3] = PSMB1/I208N: T/T, ≦65 years old, IRC review
[4] = PSMB1/P11A: C/G, Ann Arbor Stage IV, IRC review
[5] = PSMB1/P11A: C/G, High Tumor Burden, IRC review
[6] = PSMB1/P11A: C/G, ≦65 years old, IRC review
[7] = PSMB1/P193L: C/C, Ann Arbor Stage IV, IRC review
[8] = PSMB1/P193L: C/C, High Tumor Burden, IRC review
[9] = PSMB1/P193L: C/C, ≦65 years old, IRC review
[10] = PSMB2/E49X: G/G, Ann Arbor Stage IV, IRC review
[11] = PSMB2/E49X: G/G, High Tumor Burden, IRC review
[12] = PSMB2/E49X: G/G, ≦65 years old, IRC review
[13] = PSMB2/G187V: G/G, Ann Arbor Stage IV, IRC review
[14] = PSMB2/G187V: G/G, High Tumor Burden, IRC review
[15] = PSMB2/G187V: G/G, ≦65 years old, IRC review
[16] = PSMB2/L159F: C/C, Ann Arbor Stage IV, IRC review
[17] = PSMB2/L159F: C/C, High Tumor Burden, IRC review
[18] = PSMB2/L159F: C/C, ≦65 years old, IRC review
[19] = PSMB5/L206M: C/C, Ann Arbor Stage IV, IRC review
[20] = PSMB5/L206M: C/C, High Tumor Burden, IRC review
[21] = PSMB5/L206M: C/C, ≦65 years old, IRC review
[22] = PSMB5/R24C: C/C, ≦65 years old, IRC review
[23] = PSMB5/R24C: C/T, 2 Prior Lines of Therapy, IRC review
[24] = PSMB5/R24C: C/T, High Tumor Burden, IRC review
[25] = PSMB6/A234D: C/C, Ann Arbor Stage IV, IRC review
[26] = PSMB6/A234D: C/C, High Tumor Burden, IRC review
[27] = PSMB6/A234D: C/C, ≦65 years old, IRC review
[28] = PSMB6/P107A: C/C, Ann Arbor Stage IV, IRC review
[29] = PSMB6/P107A: C/C, ≦65 years old, IRC review
[30] = PSMB8/G8R: G/G, Ann Arbor Stage IV, IRC review
[31] = PSMB8/G8R: G/G, High Tumor Burden, IRC review
[32] = PSMB8/G8R: G/G, ≦65 years old, IRC review
[33] = PSMB8/R141C: C/C, Ann Arbor Stage IV, IRC review
[34] = PSMB8/R141C: C/C, High Tumor Burden, IRC review
[35] = PSMB8/R141C: C/C, ≦65 years old, IRC review
[36] = PSMB8/V182M: G/G, >1 year since last anti-lymphoma treatment, IRC review
[37] = PSMB8/V182M: G/G, Ann Arbor Stage IV, IRC review
[38] = PSMB8/V182M: G/G, High Tumor Burden, IRC review
[39] = PSMB8/V182M: G/G, ≦65 years old, IRC review
[40] = PSMB9/G9E: G/G, >1 year since last anti-lymphoma treatment, IRC review
[41] = PSMB9/G9E: G/G, Ann Arbor Stage IV, IRC review
[42] = PSMB9/G9E: G/G, High Tumor Burden, IRC review
[43] = PSMB9/G9E: G/G, ≦65 years old, IRC review
[44] = PSMB9/R60H: A/G, Male, IRC review
[45] = PSMB9/R60H: G/G, ≦65 years old, IRC review
[46] = PSMB9/V32I: C/C, >1 year since last anti-lymphoma treatment, IRC review
[47] = PSMB9/V32I: C/C, Ann Arbor Stage IV, IRC review
[48] = PSMB9/V32I: C/C, No Subgroup, IRC review
[49] = PSMB9/V32I: C/C, ≦65 years old, IRC review

## rituximab
PSMB1/A171S: G/G, ≦65 years old, IRC review
  TTP Median: 326
[1]
  TTP Evt/N: 95/127
  TTP Median: 278
[2]
  TTP Evt/N: 110/147
  TTP Median: 273
[3]
  TTP Evt/N: 131/198
  TTP Median: 326
[4]
  TTP Evt/N: 46/59
  TTP Median: 235
[5]
  TTP Evt/N: 52/72
  TTP Median: 253
[6]
  TTP Evt/N: 62/96
  TTP Median: 288
[7]
  TTP Evt/N: 95/127
  TTP Median: 278
[8]
  TTP Evt/N: 110/147
  TTP Median: 273
[9]
  TTP Evt/N: 131/198
  TTP Median: 326
[10]
  TTP Evt/N: 95/127
  TTP Median: 278
[11]
  TTP Evt/N: 110/147
  TTP Median: 273
[12]
  TTP Evt/N: 131/198
  TTP Median: 326
[13]
  TTP Evt/N: 95/127
  TTP Median: 278
[14]
  TTP Evt/N: 110/147
  TTP Median: 273
[15]
  TTP Evt/N: 131/198
  TTP Median: 326
[16]
  TTP Evt/N: 95/127
  TTP Median: 278
[17]
  TTP Evt/N: 110/147
  TTP Median: 273
[18]
  TTP Evt/N: 131/198
  TTP Median: 326
[19]
  TTP Evt/N: 95/127
  TTP Median: 278
[20]
  TTP Evt/N: 110/147
  TTP Median: 273
[21]
  TTP Evt/N: 131/198
  TTP Median: 326
[22]
  TTP Evt/N: 115/170
  TTP Median: 334
[23]
  TTP Evt/N: 8/10
  TTP Median: 280
[24]
  TTP Evt/N: 17/21
  TTP Median: 275
[25]
  TTP Evt/N: 95/127
  TTP Median: 278
[26]
  TTP Evt/N: 110/147
  TTP Median: 273
[27]
  TTP Evt/N: 131/198
  TTP Median: 326
[28]
  TTP Evt/N: 92/124
  TTP Median: 279
[29]
  TTP Evt/N: 126/189
  TTP Median: 330
[30]
  TTP Evt/N: 88/120
  TTP Median: 279
[31]
  TTP Evt/N: 104/140
  TTP Median: 271
[32]
  TTP Evt/N: 124/189
  TTP Median: 330
[33]
  TTP Evt/N: 95/127
  TTP Median: 278
[34]
  TTP Evt/N: 110/147
  TTP Median: 273
[35]
  TTP Evt/N: 131/198
  TTP Median: 326
[36]
  TTP Evt/N: 104/165
  TTP Median: 381
[37]
  TTP Evt/N: 95/127
  TTP Median: 278
[38]
  TTP Evt/N: 110/147
  TTP Median: 273
[39]
  TTP Evt/N: 131/198
  TTP Median: 326
[40]
  TTP Evt/N: 104/163
  TTP Median: 381
[41]
  TTP Evt/N: 95/126
  TTP Median: 278
[42]
  TTP Evt/N: 110/145
  TTP Median: 271
[43]
  TTP Evt/N: 131/196
  TTP Median: 326
[44]
  TTP Evt/N: 22/28
  TTP Median: 273
[45]
  TTP Evt/N: 79/119
  TTP Median: 330
[46]
  TTP Evt/N: 102/160
  TTP Median: 379
[47]
  TTP Evt/N: 93/123
  TTP Median: 277
PSMB9/V32I: C/C, High Tumor Burden, IRC Review
  TTP Median: 273
[48]
  TTP Evt/N: 177/266
  TTP Median: 345
[49]
  TTP Evt/N: 129/192
  TTP Median: 326
